Source: publication PMC3390344, “Antibacterial Activity and Mechanism of a Scorpion Venom Peptide Derivative In Vitro and In Vivo” (PLoS ONE, 2012)
Ends that are not written are not given here.

Columns and labels:
B. thuringiensis AB92037 = test: MIC, broth microdilution (CLSI); type: cell-based, Bacillus thuringiensis; conditions: B. thuringiensis AB92037, Gram-positive, 96-well
Protocol: S. aureus AB94004, S. aureus ATCC 25923, E. coli AB94012, E. coli ATCC 25922, Pseudomonas aeruginosa AB93066, Bacillus thuringiensis AB92037, Bacillus subtilis AB91021, and Micrococcus luteus AB93113 were purchased from the China Center of Type Culture Collection (CCTCC).
The MIC was determined via a microdilution assay in 96-well microtiter plates according to the broth microdilution guideline of Clinical and Laboratory Standards Institute (CLSI).

S. aureus = S. aureus mouse skin abrasion and infection model; type: in vivo, mouse (BALB/c)
Protocol: Female BALB/c mice weighing 18–20 g were purchased from the Hubei Research Center of Laboratory Animals. All animal studies were approved by the Institutional Animal Care and Use Committee of Wuhan University.
Kn2-7 or BmKn2 was prepared in gel form in 0.5% hydroxypropylcellulose to a final concentration of 5 mg/mL.
Mice were injected with 150 mg/kg of cyclophosphamide 4 days prior to infection. Subsequently, the mice were injected with 100 mg/kg of cyclophosphamide 1 day prior to infection. After being anesthetized, the dorsal skin of the mice was shaved, and abrasions were produced in a 1×1 cm^2 area using a blade. These abrasion wounds damaged only the stratum corneum and upper layer of the epidermis, but not the dermis. Five minutes later, the wounds were inoculated with 20 µl of S. aureus (10^7–10^8 CFUs) using a micropipettor. A group of mice was killed 4 h after infection to control for the infectious dose. Four hours after infection, the wounds of the other mice were smeared with 20 µl of 5 mg/mL gel or a placebo gel, which was used as a negative control. The treatment lasted for 4 days, with two peptide gel applications being performed daily (morning and evening at 8 h intervals). After 4 days of treatment, the mice were killed, and the wound area of the skin was immediately excised and homogenized. Suitable dilutions of the homogenates were plated on LB plates to determine the number of living bacteria (CFUs).
After the animals were euthanized, biopsy specimens of the excised wound area of the skin were collected and immediately fixed in phosphate-buffered formalin (10%, pH = 7.4). Then, the biopsy specimens were embedded in paraffin and stained with hematoxylin and eosin.
In each experiment, the mean CFU was calculated using log10-transformed data. Based on the averages of three experiments, the mean, range, and coefficient of variation were calculated.

Row | Substance | MIC (B. thuringiensis AB92037) [µg/mL] | Cutaneous viable counts (colony counts) of S. aureus (S. aureus; female BALB/c mice, cyclophosphamide-pretreated, skin abrasion, 10^7–10^8 CFUs, topical 20 µl of 5 mg/mL gel (0.5% hydroxypropylcellulose) twice daily for 4 days, eight mice per group, versus placebo-treated and untreated mice) | Histological morphology of the skin sections, four days after infection (S. aureus; hematoxylin and eosin, topical 5 mg/mL gel twice daily for 4 days, untreated and placebo groups lost nearly all epidermis) | Appearance of the infected skin, four days after infection (S. aureus; topical 5 mg/mL gel twice daily for 4 days, placebo blisters became larger) | Appearance of the infected skin, one day after infection (S. aureus; topical 5 mg/mL gel twice daily, placebo skin wet with blistering)
1 | FIGAIARLLSKIF-NH2 [BmKn2] | 12.5 |  |  |  | 
2 | FIKRIARLLRKIF [Kn2-7] |  | clearly lower | recovered almost fully | healed | scabbed over
